Laboratory results taken from ChEMBL document CHEMBL1201862, “PubChem BioAssay data set” (2004).
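Dose response: 5 concentrations. Exposure: 48 h. Format: 96-well plates. Endpoint: linear interpolation; highest concentration if not reached. At the GI50, growth is halved.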 Active and inactive are the calls of the source. Cut-off read from the data, not from the text of the source: active = GI50 up to about 1.1 µM and inactive = higher.

Assays:
Experiment in all cases: NCI anticancer screen, dose series, 48 h
786-0 = tested on: 786-0
HT-29 = tested on: HT-29
K562 = tested on: K562
A498 = tested on: A498
DU-145 = tested on: DU-145
SN12C = tested on: SN12C
SNB-75 = tested on: SNB-75
CAKI-1 = tested on: CAKI-1
SK-OV-3 = tested on: SK-OV-3
HCC 2998 = tested on: HCC 2998
BT-549 = tested on: BT-549
MDA-MB-231 = tested on: MDA-MB-231
Hs-578T = tested on: Hs-578T
HCT-116 = tested on: HCT-116
OVCAR-5 = tested on: OVCAR-5
U-251 = tested on: U-251
LOX IMVI = tested on: LOX IMVI
MOLT-4 = tested on: MOLT-4
SNB-19 = tested on: SNB-19
OVCAR-4 = tested on: OVCAR-4
NCI/ADR-RES = tested on: NCI/ADR-RES
PC-3 = tested on: PC-3
MDA-MB-435 = tested on: MDA-MB-435
RPMI-8226 = tested on: RPMI-8226
ACHN = tested on: ACHN
HL-60 = tested on: HL-60
OVCAR-8 = tested on: OVCAR-8
SK-MEL-5 = tested on: SK-MEL-5
Malme-3M = tested on: Malme-3M
UACC-257 = tested on: UACC-257
T47D = tested on: T47D
KM12 = tested on: KM12
SR = tested on: SR
IGROV-1 = tested on: IGROV-1
NCI-H226 = tested on: NCI-H226
MDA-N = tested on: MDA-N
SF-268 = tested on: SF-268
MCF7 = tested on: MCF7
HCT-15 = tested on: HCT-15
SK-MEL-2 = tested on: SK-MEL-2
NCI-H522 = tested on: NCI-H522
SK-MEL-28 = tested on: SK-MEL-28
CCRF-CEM = tested on: CCRF-CEM
SF-539 = tested on: SF-539
RXF 393 = tested on: RXF 393
HOP-92 = tested on: HOP-92
UACC-62 = tested on: UACC-62
COLO 205 = tested on: COLO 205
TK-10 = tested on: TK-10
UO-31 = tested on: UO-31
SW-620 = tested on: SW-620
SF-295 = tested on: SF-295
HOP-62 = tested on: HOP-62
A549 = tested on: A549
OVCAR-3 = tested on: OVCAR-3
NCI-H460 = tested on: NCI-H460
NCI-H23 = tested on: NCI-H23
EKVX = tested on: EKVX
M14 = tested on: M14

## Cc1ccnc2nc(-c3ccc(F)cc3)cc(O)c12
786-0
  GI50: 42.2 µM (inactive)
HT-29
  GI50: 18.7 µM (inactive)
K562
  GI50: 5.55 µM (inactive)
A498
  GI50: 63.2 µM (inactive)
DU-145
  GI50: > 69.5 µM (inactive)
SN12C
  GI50: > 100 µM (inactive)
SNB-75
  GI50: 29.6 µM (inactive)
CAKI-1
  GI50: 36.2 µM (inactive)
SK-OV-3
  GI50: > 86.9 µM (inactive)
HCC 2998
  GI50: 60 µM (inactive)
BT-549
  GI50: > 100 µM (inactive)
MDA-MB-231
  GI50: > 80.7 µM (inactive)
Hs-578T
  GI50: 72.4 µM (inactive)
HCT-116
  GI50: 16.9 µM (inactive)
OVCAR-5
  GI50: > 100 µM (inactive)
U-251
  GI50: 38 µM (inactive)
LOX IMVI
  GI50: 26.2 µM (inactive)
MOLT-4
  GI50: > 71.4 µM (inactive)
SNB-19
  GI50: > 78.7 µM (inactive)
OVCAR-4
  GI50: 77.6 µM (inactive)
NCI/ADR-RES
  GI50: > 86.3 µM (inactive)
PC-3
  GI50: > 80.4 µM (inactive)
MDA-MB-435
  GI50: 3.15 µM (inactive)
RPMI-8226
  GI50: 35.3 µM (inactive)
ACHN
  GI50: 68.1 µM (inactive)
HL-60
  GI50: 5.97 µM (inactive)
OVCAR-8
  GI50: > 100 µM (inactive)
SK-MEL-5
  GI50: 22.6 µM (inactive)
Malme-3M
  GI50: 92.7 µM (inactive)
UACC-257
  GI50: > 92 µM (inactive)
T47D
  GI50: > 72.6 µM (inactive)
KM12
  GI50: 7.23 µM (inactive)
SR
  GI50: 3.82 µM (inactive)
IGROV-1
  GI50: 26.4 µM (inactive)
NCI-H226
  GI50: 64 µM (inactive)
MDA-N
  GI50: 3.51 µM (inactive)
SF-268
  GI50: 74.6 µM (inactive)
MCF7
  GI50: 24.5 µM (inactive)
HCT-15
  GI50: 5.08 µM
SK-MEL-2
  GI50: 57.3 µM (inactive)
NCI-H522
  GI50: 9.04 µM (inactive)
SK-MEL-28
  GI50: 77.3 µM (inactive)
CCRF-CEM
  GI50: 75.9 µM (inactive)
SF-539
  GI50: 57.3 µM (inactive)
RXF 393
  GI50: > 82.8 µM (inactive)
HOP-92
  GI50: 51.1 µM (inactive)
UACC-62
  GI50: 16 µM (inactive)
COLO 205
  GI50: 19.5 µM (inactive)
TK-10
  GI50: > 97.3 µM (inactive)
UO-31
  GI50: > 70.5 µM (inactive)
SW-620
  GI50: 33.7 µM (inactive)
SF-295
  GI50: 86.3 µM (inactive)
HOP-62
  GI50: 68.7 µM (inactive)
A549
  GI50: 54.2 µM (inactive)
OVCAR-3
  GI50: 67.6 µM (inactive)
NCI-H460
  GI50: 13.2 µM (inactive)
NCI-H23
  GI50: 75.7 µM (inactive)
EKVX
  GI50: 79.6 µM (inactive)
M14
  GI50: 28.4 µM (inactive)

## CC(NNC(=O)c1ccncc1)c1ccc(Cl)c(Cl)c1 (configuration not stated)
786-0
  GI50: > 100 µM (inactive)
HT-29
  GI50: > 100 µM (inactive)
K562
  GI50: 38.4 µM (inactive)
A498
  GI50: 69.3 µM (inactive)
DU-145
  GI50: > 100 µM (inactive)
SN12C
  GI50: > 100 µM (inactive)
SNB-75
  GI50: > 100 µM (inactive)
CAKI-1
  GI50: > 100 µM (inactive)
SK-OV-3
  GI50: 19.6 µM (inactive)
HCC 2998
  GI50: > 100 µM (inactive)
BT-549
  GI50: > 100 µM (inactive)
MDA-MB-231
  GI50: > 100 µM (inactive)
Hs-578T
  GI50: 86.9 µM (inactive)
HCT-116
  GI50: > 100 µM (inactive)
OVCAR-5
  GI50: > 100 µM (inactive)
U-251
  GI50: > 100 µM (inactive)
LOX IMVI
  GI50: > 100 µM (inactive)
MOLT-4
  GI50: 48.9 µM (inactive)
SNB-19
  GI50: > 100 µM (inactive)
OVCAR-4
  GI50: > 100 µM (inactive)
NCI/ADR-RES
  GI50: > 100 µM (inactive)
PC-3
  GI50: 71.3 µM (inactive)
MDA-MB-435
  GI50: > 100 µM (inactive)
RPMI-8226
  GI50: 75.5 µM (inactive)
ACHN
  GI50: > 100 µM (inactive)
HL-60
  GI50: 34.8 µM (inactive)
OVCAR-8
  GI50: > 100 µM (inactive)
SK-MEL-5
  GI50: > 100 µM (inactive)
Malme-3M
  GI50: > 100 µM (inactive)
UACC-257
  GI50: > 100 µM (inactive)
T47D
  GI50: 66.4 µM (inactive)
KM12
  GI50: > 100 µM (inactive)
SR
  GI50: 60.8 µM (inactive)
IGROV-1
  GI50: > 100 µM (inactive)
NCI-H226
  GI50: > 100 µM (inactive)
MDA-N
  GI50: 95.3 µM (inactive)
SF-268
  GI50: > 100 µM (inactive)
MCF7
  GI50: > 100 µM (inactive)
HCT-15
  GI50: > 100 µM
SK-MEL-2
  GI50: > 100 µM (inactive)
NCI-H522
  GI50: > 100 µM (inactive)
SK-MEL-28
  GI50: > 100 µM (inactive)
CCRF-CEM
  GI50: 43.4 µM (inactive)
SF-539
  GI50: > 100 µM (inactive)
RXF 393
  GI50: > 100 µM (inactive)
HOP-92
  GI50: > 100 µM (inactive)
UACC-62
  GI50: > 100 µM (inactive)
COLO 205
  GI50: > 100 µM (inactive)
TK-10
  GI50: > 100 µM (inactive)
UO-31
  GI50: 54.6 µM (inactive)
SW-620
  GI50: > 100 µM (inactive)
SF-295
  GI50: > 100 µM (inactive)
HOP-62
  GI50: > 100 µM (inactive)
A549
  GI50: > 100 µM (inactive)
OVCAR-3
  GI50: > 100 µM (inactive)
NCI-H460
  GI50: > 100 µM (inactive)
NCI-H23
  GI50: 57.7 µM (inactive)
EKVX
  GI50: > 100 µM (inactive)
M14
  GI50: 67.9 µM (inactive)

## CN(C)/C=N/S(=O)(=O)c1nn2c(C=O)c(-c3ccc([N+](=O)[O-])cc3)nc2s1
786-0
  GI50: 2.29 µM (inactive)
HT-29
  GI50: 1.54 µM (inactive)
K562
  GI50: 2.43 µM (inactive)
A498
  GI50: 27.6 µM (inactive)
DU-145
  GI50: 6.67 µM (inactive)
SN12C
  GI50: 5.42 µM (inactive)
SNB-75
  GI50: 23.6 µM (inactive)
CAKI-1
  GI50: 0.627 µM (active)
SK-OV-3
  GI50: 53.7 µM (inactive)
HCC 2998
  GI50: 17.4 µM (inactive)
BT-549
  GI50: 3.79 µM (inactive)
MDA-MB-231
  GI50: 12.4 µM (inactive)
Hs-578T
  GI50: 24.5 µM (inactive)
HCT-116
  GI50: 1.67 µM (inactive)
OVCAR-5
  GI50: 23.4 µM (inactive)
U-251
  GI50: 8.69 µM (inactive)
LOX IMVI
  GI50: 2.93 µM (inactive)
MOLT-4
  GI50: 2.35 µM (inactive)
SNB-19
  GI50: 28.6 µM (inactive)
OVCAR-4
  GI50: 11.4 µM (inactive)
NCI/ADR-RES
  GI50: 8.85 µM (inactive)
PC-3
  GI50: 7.21 µM (inactive)
MDA-MB-435
  GI50: 6.3 µM (inactive)
RPMI-8226
  GI50: 2.39 µM (inactive)
ACHN
  GI50: 2.03 µM (inactive)
HL-60
  GI50: 1.38 µM (inactive)
OVCAR-8
  GI50: 3.67 µM (inactive)
SK-MEL-5
  GI50: 3.3 µM (inactive)
Malme-3M
  GI50: 2.23 µM (inactive)
UACC-257
  GI50: 9.44 µM (inactive)
T47D
  GI50: 5.68 µM (inactive)
KM12
  GI50: 9.12 µM (inactive)
SR
  GI50: 2.06 µM (inactive)
IGROV-1
  GI50: 3.15 µM (inactive)
NCI-H226
  GI50: 19.6 µM (inactive)
MDA-N
  GI50: 2.91 µM (inactive)
SF-268
  GI50: 13.6 µM (inactive)
MCF7
  GI50: 4.68 µM (inactive)
HCT-15
  GI50: 2.94 µM
SK-MEL-2
  GI50: 10.4 µM (inactive)
NCI-H522
  GI50: 1.27 µM (inactive)
SK-MEL-28
  GI50: 4.23 µM (inactive)
CCRF-CEM
  GI50: 0.834 µM (active)
SF-539
  GI50: 8.11 µM (inactive)
RXF 393
  GI50: 5.62 µM (inactive)
HOP-92
  GI50: 12.6 µM (inactive)
UACC-62
  GI50: 4.91 µM (inactive)
COLO 205
  GI50: 3.18 µM (inactive)
TK-10
  GI50: 5.73 µM (inactive)
UO-31
  GI50: 2.61 µM (inactive)
SW-620
  GI50: 2.52 µM (inactive)
SF-295
  GI50: 35.1 µM (inactive)
HOP-62
  GI50: 26.1 µM (inactive)
A549
  GI50: 22.8 µM (inactive)
OVCAR-3
  GI50: 4.11 µM (inactive)
NCI-H460
  GI50: 13.6 µM (inactive)
NCI-H23
  GI50: 12 µM (inactive)
EKVX
  GI50: 16.6 µM (inactive)
M14
  GI50: 2.79 µM (inactive)
